We go through 24 compounds from ChEMBL document CHEMBL2046309, “Semi-synthesis and bio-evaluation of polybrominated diphenyl ethers from the sponge Dysidea herbacea” (Bioorg Med Chem Lett, 2012).

Usually IC50 stands for the midpoint of a concentration-inhibition curve. Broadly, the LC50 is the concentration that kills 50% of the test population. Read a low LC50 as greater toxicity.

The test system of one data set is HL-60. Kind of data set: Cytotoxicity against human HL60 cells assessed as decrease in cell number after 24 hrs by MTT assay. In kind it is functional, cell-based. To be noted: HL-60, 24 h. In general terms: Tetrazolium dyes change colour on reduction, which living cells bring about.
For another data set, the system named is U-937. Nature of the data set: Cytotoxicity against human U937 cells assessed as decrease in cell number after 24 hrs by MTT assay. In kind it is functional, cell-based. The note with it: U-937, 24 h.
The next data set concerns Artemia. Kind of data set: Toxicity in brine shrimps. In kind it is organism-based. The note with it: in vivo.
Another data set deals with Staphylococcus aureus. Nature of the data set: Antibacterial activity against Staphylococcus aureus by paper disc assay method. The class given is functional, organism-based.
The next data set concerns Pseudomonas syringae. Kind of data set: Antibacterial activity against Pseudomonas syringae by paper disc assay method. In kind it is functional, organism-based.
The test system of another data set is Bacillus subtilis. Nature of the data set: Antibacterial activity against Bacillus subtilis by paper disc assay method. The class given is functional, organism-based.
The subject of the next data set is Escherichia coli. Nature of the data set: Antibacterial activity against Escherichia coli by paper disc assay method. In kind it is functional, organism-based.

Converted amounts (≈) assume the structure as drawn. The source made the active and inactive calls. The rule behind the calls is not given here.

For `Oc1c(Br)cc(Br)cc1Oc1ccc(Br)cc1Br`, the 50% inhibitory concentration (IC50) was found to be 19.3 µg/mL (≈ 38.5 µM) in the data set with HL-60 and 22.5 µg/mL (≈ 44.8 µM) in the data set on U-937. The compound further had an LC50 in the data set on Artemia of 12.8 ppm.

On to `BrCCOc1c(Br)cc(Br)cc1Oc1ccc(Br)cc1Br`, for which the IC50 in the data set on HL-60 was determined as 26.2 µg/mL (≈ 43 µM); in the data set with U-937, 32.5 µg/mL (≈ 53.4 µM).

Turning to `Brc1ccc(Oc2cc(Br)cc(Br)c2OCc2ccccc2)c(Br)c1`, the half-inhibitory concentration (IC50) in the data set with HL-60 was found to be 27.9 µg/mL (≈ 47.1 µM); in the data set on U-937, 29 µg/mL (≈ 49 µM).

Take `BrCCCOc1c(Br)cc(Br)cc1Oc1ccc(Br)cc1Br`: the concentration for half-maximal inhibition (IC50) in the data set with HL-60 is 29.9 µg/mL (≈ 48 µM); with U-937, 30.3 µg/mL (≈ 48.7 µM).

In the case of `CCOC(=O)C(C)Oc1c(Br)cc(Br)cc1Oc1ccc(Br)cc1Br` (stereo not drawn), the figures for the half-inhibitory concentration (IC50) in the data set on HL-60 and with U-937 were 35.7 µg/mL (≈ 59.3 µM) and 39.5 µg/mL (≈ 65.6 µM), respectively.

Regarding `Brc1ccc(Oc2cc(Br)cc(Br)c2OCCCCCN2CCN(c3ccccc3)CC2)c(Br)c1`, the figures for the half-inhibitory concentration (IC50) in the data set with HL-60 and in the data set on U-937 were 41.6 µg/mL (≈ 56.8 µM) and 42.5 µg/mL (≈ 58 µM), respectively.

As to `C#CCOc1c(Br)cc(Br)cc1Oc1ccc(Br)cc1Br`, the IC50 with HL-60 amounted to 29.7 µg/mL (≈ 55 µM); in the data set with U-937 it was 29.5 µg/mL (≈ 54.6 µM).

As to `Brc1ccc(Oc2cc(Br)cc(Br)c2OCCCCCN2CCOCC2)c(Br)c1`, the IC50 in the data set with HL-60 was 50.5 µg/mL (≈ 76.9 µM); in the data set on U-937, 39.8 µg/mL (≈ 60.6 µM).

`OCCCOc1c(Br)cc(Br)cc1Oc1ccc(Br)cc1Br`: the concentration for half-maximal inhibition (IC50) in the data set on HL-60 turned out to be 29.9 µg/mL (≈ 53.4 µM); in the data set with U-937, 32.3 µg/mL (≈ 57.7 µM).

With `OCCOc1c(Br)cc(Br)cc1Oc1ccc(Br)cc1Br`, the IC50 with HL-60 was found to be 28.2 µg/mL (≈ 51.7 µM); with U-937, 34.5 µg/mL (≈ 63.2 µM).

For the compound `CN1CCN(CCCCCOc2c(Br)cc(Br)cc2Oc2ccc(Br)cc2Br)CC1`, the figures for the IC50 with HL-60 and with U-937 were 48.3 µg/mL (≈ 72.1 µM) and 49.1 µg/mL (≈ 73.3 µM), respectively.

`BrCCCCCOc1c(Br)cc(Br)cc1Oc1ccc(Br)cc1Br`: the concentration for half-maximal inhibition (IC50) in the data set on HL-60 turned out to be 25.7 µg/mL (≈ 39.5 µM); in the data set on U-937 it was 29.5 µg/mL (≈ 45.3 µM).

On to `COc1cc([C@@H]2c3cc4c(cc3[C@@H](O[C@@H]3O[C@@H]5CO[C@@H](C)O[C@H]5[C@H](O)[C@H]3O)[C@H]3COC(=O)[C@H]23)OCO4)cc(OC)c1O` [ETOPOSIDE], for which, in the data set on HL-60, the IC50 was 1.1 µg/mL (≈ 1.87 µM).

As for `CC(C)(C)OC(=O)N1CCCN(CCCCCOc2c(Br)cc(Br)cc2Oc2ccc(Br)cc2Br)CC1`, the IC50 in the data set with HL-60 was found to be 44.8 µg/mL (≈ 58.2 µM); in the data set with U-937, 39.5 µg/mL (≈ 51.3 µM).

On to `COc1c(Br)cc(Br)cc1Oc1ccc(Br)cc1Br`, for which the figures for the IC50 in the data set on HL-60 and in the data set on U-937 were 28.2 µg/mL (≈ 54.7 µM) and 34.5 µg/mL (≈ 66.9 µM), respectively. Also, the outcome with Staphylococcus aureus, in the data set on Pseudomonas syringae, in the data set with Bacillus subtilis and with Escherichia coli was Active. The same compound gave an LC50 with Artemia of 19.28 ppm.

For `BrCCCCCCOc1c(Br)cc(Br)cc1Oc1ccc(Br)cc1Br`, the IC50 in the data set with HL-60 worked out at 37.8 µg/mL (≈ 56.9 µM); with U-937, 33.8 µg/mL (≈ 50.8 µM).

For `Brc1ccc(Oc2cc(Br)cc(Br)c2OCCCCCN2CCN(C/C=C/c3ccccc3)CC2)c(Br)c1`, the figures for the half-inhibitory concentration (IC50) in the data set with HL-60 and with U-937 were 47.2 µg/mL (≈ 61.1 µM) and 32.7 µg/mL (≈ 42.3 µM), respectively.

`COc1ccccc1N1CCN(CCCCCOc2c(Br)cc(Br)cc2Oc2ccc(Br)cc2Br)CC1`: the IC50 in the data set with HL-60 is 32.2 µg/mL (≈ 42.2 µM); with U-937, 37.5 µg/mL (≈ 49.2 µM).

As to `CC(C)(C)C(=O)C(C#N)Oc1c(Br)cc(Br)cc1Oc1ccc(Br)cc1Br` (stereo not drawn), the IC50 turned out to be 29.2 µg/mL (≈ 46.7 µM) in the data set with HL-60 and 32.5 µg/mL (≈ 52 µM) in the data set on U-937.

On to `BrCCCCOc1c(Br)cc(Br)cc1Oc1ccc(Br)cc1Br`, for which the IC50 in the data set on HL-60 turned out to be 25.9 µg/mL (≈ 40.7 µM); with U-937, 29 µg/mL (≈ 45.5 µM).

For `CC(=O)Oc1c(Br)cc(Br)cc1Oc1ccc(Br)cc1Br`, the 50% inhibitory concentration (IC50) was 29.9 µg/mL (≈ 55 µM) in the data set on HL-60 and 32.3 µg/mL (≈ 59.4 µM) in the data set with U-937. Besides, the outcome in the data set with Staphylococcus aureus, in the data set with Pseudomonas syringae, with Bacillus subtilis and in the data set on Escherichia coli was Active. The compound also came in with an LC50 in the data set with Artemia of 23.28 ppm.

Regarding `CC(C)(C)OC(=O)N1CCN(CCCCCOc2c(Br)cc(Br)cc2Oc2ccc(Br)cc2Br)CC1`, the results for the IC50 with HL-60 and with U-937 were 32.1 µg/mL (≈ 42.5 µM) and 35.5 µg/mL (≈ 46.9 µM), respectively.

For `C=CCOc1c(Br)cc(Br)cc1Oc1ccc(Br)cc1Br`, the IC50 in the data set with HL-60 is 27.9 µg/mL (≈ 51.5 µM); with U-937 it was 29 µg/mL (≈ 53.5 µM).

On to `Cc1ccc(S(=O)(=O)n2nc(N3CCN(CCCCCOc4c(Br)cc(Br)cc4Oc4ccc(Br)cc4Br)CC3)c3cc([N+](=O)[O-])ccc32)cc1`, for which the results for the half-inhibitory concentration (IC50) with HL-60 and in the data set with U-937 were 52.5 µg/mL (≈ 54 µM) and 68.5 µg/mL (≈ 70.5 µM), respectively.
